In PubChem BioAssay AID256 (DTP/NCI, 2004):
Several values for one entry are separate records, joined by “and”; a condition that tells them apart may be missing. Identical values can stand only once. Toxic doses and inconclusive results are not listed. The calls were made as follows: active = survival T/C of 150% or more; inactive = T/C below 125% in these data.

Test system: CD2F1 mice, L1210 leukemia ip, survival T/C
Experiment: NCI In Vivo Anticancer Drug Screen. Data for tumor model L1210 Leukemia (intraperitoneal) in CD2F1 (CDF1) mice
Details: higher = longer survival
Method in brief: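 Antitumor effect is scored in animals hosting a serially transplanted tumor. Values compare compound-dosed animals against vehicle-only controls as a simple quotient.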

[1] = endpoint: mean survival time, dose: 150.0 mg/kg/injection, schedule: Q01DX001 (ip), vehicle: other
[2] = endpoint: mean survival time, dose: 100.0 mg/kg/injection, schedule: Q04DX002 (ip), vehicle: saline with Tween-80

Measured: T/C

CC1(CCOC2CCCCO2)NC(=O)NC1=O (stereo unspecified)
inactive: endpoint: mean survival time, dose: 100.0 mg/kg/injection, schedule: Q01DX001 (ip), vehicle: saline sonified 102 % of control | endpoint: mean survival time, dose: 100.0 mg/kg/injection, schedule: Q01DX009 (ip), vehicle: saline with Tween-80 112 % of control | endpoint: mean survival time, dose: 200.0 mg/kg/injection, schedule: Q01DX001 (ip), vehicle: saline sonified 100 % of control | endpoint: mean survival time, dose: 200.0 mg/kg/injection, schedule: Q01DX009 (ip), vehicle: saline with Tween-80 103 % of control | endpoint: mean survival time, dose: 400.0 mg/kg/injection, schedule: Q01DX001 (ip), vehicle: saline sonified 100 % of control | endpoint: mean survival time, dose: 400.0 mg/kg/injection, schedule: Q01DX009 (ip), vehicle: saline with Tween-80 103 % of control

COC(=O)c1ccccc1-c1ccccc1C(=O)O
inactive: endpoint: mean survival time, dose: 44.0 mg/kg/injection, schedule: Q01DX001 (ip), vehicle: other 97 % of control | endpoint: mean survival time, dose: 66.0 mg/kg/injection, schedule: Q01DX001 (ip), vehicle: other 97 % of control | endpoint: mean survival time, dose: 100.0 mg/kg/injection, schedule: Q01DX001 (ip), vehicle: other 103 % of control | [1] 100 % of control

CCCC1=C(CCC)C(F)(F)C1(F)F
inactive: endpoint: mean survival time, dose: 75.0 mg/kg/injection, schedule: Q01DX001 (ip), vehicle: other 98 % of control | [1] 96 % of control | endpoint: mean survival time, dose: 300.0 mg/kg/injection, schedule: Q01DX001 (ip), vehicle: other 108 % of control

O=C(CCCN1CCC(C(O)c2ccc(F)cc2)CC1)c1ccc(F)cc1 (stereo unspecified)
inactive: endpoint: median survival time, dose: 6.25 mg/kg/injection, schedule: Q01DX009 (ip), vehicle: saline with Tween-80 103 % of control and 109 % of control and 112 % of control | endpoint: median survival time, dose: 6.25 mg/kg/injection, schedule: Q06HX014 (oral), vehicle: saline with Tween-80 104 % of control | endpoint: median survival time, dose: 12.5 mg/kg/injection, schedule: Q01DX009 (ip), vehicle: saline with Tween-80 120 % of control and 108 % of control | endpoint: median survival time, dose: 12.5 mg/kg/injection, schedule: Q01DX009 (oral), vehicle: saline with Tween-80 111 % of control | endpoint: median survival time, dose: 12.5 mg/kg/injection, schedule: Q06HX014 (oral), vehicle: saline with Tween-80 105 % of control | endpoint: median survival time, dose: 25.0 mg/kg/injection, schedule: Q01DX009 (ip), vehicle: saline with Tween-80 121 % of control | endpoint: median survival time, dose: 25.0 mg/kg/injection, schedule: Q01DX009 (oral), vehicle: saline with Tween-80 105 % of control | endpoint: median survival time, dose: 25.0 mg/kg/injection, schedule: Q04DX003 (oral), vehicle: saline with Tween-80 102 % of control | endpoint: median survival time, dose: 25.0 mg/kg/injection, schedule: Q06HX014 (oral), vehicle: saline with Tween-80 105 % of control | endpoint: median survival time, dose: 29.7 mg/kg/injection, schedule: Q01DX009 (oral), vehicle: saline with Tween-80 109 % of control | endpoint: median survival time, dose: 44.5 mg/kg/injection, schedule: Q01DX009 (oral), vehicle: saline with Tween-80 111 % of control | endpoint: median survival time, dose: 50.0 mg/kg/injection, schedule: Q01DX009 (ip), vehicle: saline with Tween-80 123 % of control and 124 % of control | endpoint: median survival time, dose: 50.0 mg/kg/injection, schedule: Q01DX009 (oral), vehicle: saline with Tween-80 115 % of control | endpoint: median survival time, dose: 50.0 mg/kg/injection, schedule: Q04DX003 (oral), vehicle: saline with Tween-80 112 % of control | endpoint: median survival time, dose: 50.0 mg/kg/injection, schedule: Q06HX014 (oral), vehicle: saline with Tween-80 113 % of control | endpoint: median survival time, dose: 66.7 mg/kg/injection, schedule: Q01DX009 (oral), vehicle: saline with Tween-80 118 % of control | endpoint: median survival time, dose: 100.0 mg/kg/injection, schedule: Q01DX009 (ip), vehicle: saline with Tween-80 118 % of control | endpoint: median survival time, dose: 100.0 mg/kg/injection, schedule: Q01DX009 (oral), vehicle: saline with Tween-80 118 % of control | endpoint: median survival time, dose: 100.0 mg/kg/injection, schedule: Q04DX003 (oral), vehicle: saline with Tween-80 111 % of control | endpoint: median survival time, dose: 200.0 mg/kg/injection, schedule: Q04DX003 (oral), vehicle: saline with Tween-80 115 % of control

O=C1CC2OCCC3=CN4CCC56c7ccccc7N1C5C2C3CC46 (stereo unspecified)
inactive: endpoint: mean survival time, dose: 1.25 mg/kg/injection, schedule: Q01DX001 (ip), vehicle: other 116 % of control | endpoint: mean survival time, dose: 2.5 mg/kg/injection, schedule: Q01DX001 (ip), vehicle: other 108 % of control

COC1CCC([NH-])(C[NH-])C(c2ccc3c(c2)OCO3)O1.[Cl][Pt+2][Cl] (stereo unspecified)
inactive: endpoint: median survival time, dose: 8.25 mg/kg/injection, schedule: Q04DX003 (ip), vehicle: saline 103 % of control | endpoint: median survival time, dose: 17.5 mg/kg/injection, schedule: Q04DX003 (ip), vehicle: saline 105 % of control | endpoint: median survival time, dose: 35.0 mg/kg/injection, schedule: Q04DX003 (ip), vehicle: saline 110 % of control | endpoint: median survival time, dose: 70.0 mg/kg/injection, schedule: Q04DX003 (ip), vehicle: saline with Tween-80 108 % of control | endpoint: median survival time, dose: 70.0 mg/kg/injection, schedule: Q04DX003 (ip), vehicle: saline 106 % of control | endpoint: median survival time, dose: 140.0 mg/kg/injection, schedule: Q04DX003 (ip), vehicle: saline with Tween-80 113 % of control

O=c1[nH]c(=O)n2c3c1nnn3CC1OC2C(O)C1O (stereo unspecified)
inactive: endpoint: mean survival time, dose: 12.5 mg/kg/injection, schedule: Q01DX005 (ip), vehicle: water 93 % of control | endpoint: mean survival time, dose: 25.0 mg/kg/injection, schedule: Q01DX005 (ip), vehicle: water 93 % of control | endpoint: mean survival time, dose: 50.0 mg/kg/injection, schedule: Q01DX005 (ip), vehicle: water 95 % of control | endpoint: mean survival time, dose: 100.0 mg/kg/injection, schedule: Q01DX005 (ip), vehicle: water 89 % of control | endpoint: mean survival time, dose: 200.0 mg/kg/injection, schedule: Q01DX005 (ip), vehicle: water 95 % of control

OCCN=Cc1c(Cl)ccc(Cl)c1Cl
inactive: endpoint: mean survival time, dose: 100.0 mg/kg/injection, schedule: Q04DX003 (ip), vehicle: saline 108 % of control | endpoint: mean survival time, dose: 200.0 mg/kg/injection, schedule: Q04DX003 (ip), vehicle: saline 101 % of control | endpoint: mean survival time, dose: 400.0 mg/kg/injection, schedule: Q04DX003 (ip), vehicle: saline 104 % of control

O=C(O)CCCCCNCC(CNCCCCCC(=O)O)(C(=O)O)C(=O)O
inactive: [2] 104 % of control | endpoint: mean survival time, dose: 200.0 mg/kg/injection, schedule: Q04DX002 (ip), vehicle: saline with Tween-80 96 % of control | endpoint: mean survival time, dose: 400.0 mg/kg/injection, schedule: Q04DX002 (ip), vehicle: saline with Tween-80 111 % of control

COC(=O)c1cccc(N=NN(C)C)c1
inactive: endpoint: mean survival time, dose: 23.0 mg/kg/injection, schedule: Q01DX009 (ip), vehicle: Klucel (hydroxypropylcellulose) (HPC) 108 % of control | endpoint: mean survival time, dose: 39.0 mg/kg/injection, schedule: Q01DX009 (ip), vehicle: Klucel (hydroxypropylcellulose) (HPC) 98 % of control | endpoint: mean survival time, dose: 65.0 mg/kg/injection, schedule: Q01DX009 (ip), vehicle: Klucel (hydroxypropylcellulose) (HPC) 97 % of control | endpoint: mean survival time, dose: 108.0 mg/kg/injection, schedule: Q01DX009 (ip), vehicle: Klucel (hydroxypropylcellulose) (HPC) 104 % of control

COc1ccccc1N=Nc1c(O)n(-c2ccccc2OC)c(=S)n(-c2ccc(Br)cc2)c1=O
inactive: endpoint: mean survival time, dose: 25.0 mg/kg/injection, schedule: Q04DX002 (ip), vehicle: saline with Tween-80 100 % of control | endpoint: mean survival time, dose: 50.0 mg/kg/injection, schedule: Q04DX002 (ip), vehicle: saline with Tween-80 100 % of control | [2] 95 % of control

O=c1c2nccnc2nc2n1CCCCC2
inactive: endpoint: mean survival time, dose: 75.0 mg/kg/injection, schedule: Q01DX001 (ip), vehicle: saline 100 % of control | endpoint: mean survival time, dose: 150.0 mg/kg/injection, schedule: Q01DX001 (ip), vehicle: saline 103 % of control | endpoint: mean survival time, dose: 300.0 mg/kg/injection, schedule: Q01DX001 (ip), vehicle: saline 103 % of control

O.O.O=C(O)c1ccccc1C(=O)O.[NH-]C1CCCCC1[NH-].[Pt+2]
inactive: endpoint: mean survival time, dose: 3.13 mg/kg/injection, schedule: Q04DX003 (ip), vehicle: dextrose 109 % of control | endpoint: mean survival time, dose: 6.25 mg/kg/injection, schedule: Q04DX003 (ip), vehicle: dextrose 106 % of control | endpoint: mean survival time, dose: 25.0 mg/kg/injection, schedule: Q04DX003 (ip), vehicle: dextrose 106 % of control | endpoint: mean survival time, dose: 50.0 mg/kg/injection, schedule: Q04DX003 (ip), vehicle: dextrose 95 % of control

C[N+]1(C)CCc2ccccc2C1Cc1ccc(Oc2ccc(CC3c4ccccc4CC[N+]3(C)C)cc2)cc1 (stereo unspecified)
inactive: endpoint: mean survival time, dose: 0.2 mg/kg/injection, schedule: Q01DX009 (ip), vehicle: saline 93 % of control | endpoint: mean survival time, dose: 0.39 mg/kg/injection, schedule: Q01DX009 (ip), vehicle: saline 96 % of control

O=c1nc(N2CCCCCC2)ccn1C1OC(CO)C(O)C1O (stereo unspecified)
inactive: endpoint: median survival time, dose: 12.5 mg/kg/injection, schedule: Q01DX005 (ip), vehicle: distilled water + Tween-80 101 % of control | endpoint: median survival time, dose: 25.0 mg/kg/injection, schedule: Q01DX005 (ip), vehicle: distilled water + Tween-80 107 % of control | endpoint: median survival time, dose: 50.0 mg/kg/injection, schedule: Q01DX005 (ip), vehicle: distilled water + Tween-80 98 % of control | endpoint: median survival time, dose: 100.0 mg/kg/injection, schedule: Q01DX005 (ip), vehicle: distilled water + Tween-80 104 % of control | endpoint: median survival time, dose: 200.0 mg/kg/injection, schedule: Q01DX005 (ip), vehicle: distilled water + Tween-80 106 % of control

O=C(O)c1ccc(C(=O)O)nc1
inactive: endpoint: mean survival time, dose: 100.0 mg/kg/injection, schedule: Q01DX001 (ip), vehicle: saline 87 % of control | endpoint: mean survival time, dose: 200.0 mg/kg/injection, schedule: Q01DX001 (ip), vehicle: saline 95 % of control | endpoint: mean survival time, dose: 400.0 mg/kg/injection, schedule: Q01DX001 (ip), vehicle: saline 97 % of control
